Test results as given in patent publication US20220370416A1, “COMPOUNDS AND METHODS FOR TARGETED DEGRADATION OF KRAS” (Arvinas Operations, Inc., priority 2020, published 2022).

Assays:
Type in all cases: cell-based
KRAS^G12C [1] = molecular target: T1, KRAS^G12C (Homo sapiens, UniProt P01116, G12C); experiment: KRAS^G12C degradation in heterozygous H358 cells; parameters: endogenous in cells; host or cells: NCI-H358; conditions: heterozygous H358 cells (FIG. 4A)
KRAS^G12C [2] = molecular target: T1, KRAS^G12C; experiment: Engagement and degradation of endogenous KRAS^G12C in NCI-H2030 cells (blot quantitation); parameters: MRTX849-VHL bifunctional compounds engage and degrade endogenous KRAS^G12C in NCI-H2030 cells; endogenous in cells; host or cells: NCI-H2030
KRAS^G12C [3] = molecular target: T1, KRAS^G12C; experiment: KRAS^G12C engagement and degradation in homozygous, MRTX849 resistant SW1573 cells; parameters: MRTX849-VHL bifunctional compounds engage and degrade endogenous KRAS^G12C in NCI-H2030 cells; endogenous in cells; host or cells: NCI-H2030, NCI-H358, MIA PaCa-2, SW1573, NCI-H23
KRAS^G12C [4] = molecular target: T1, KRAS^G12C; experiment: KRAS^G12C engagement and degradation by immunoblot in SW1573 cells; parameters: MRTX849-VHL bifunctional compounds engage and degrade endogenous KRAS^G12C in NCI-H2030 cells; endogenous in cells; host or cells: NCI-H2030, NCI-H358, MIA PaCa-2, SW1573, NCI-H23; conditions: for KRAS, two-way ANOVA significance vs DMSO: FIG. 11
Protocol: NCI-H2030 (CRL-5914), MIA PaCa-2 (CRL-1420), NCI-H23 (CRL-5800), NCI-H358 (CRL-5807), and HCT-116 (CCL-247) cells were obtained from ATCC, expanded immediately, and frozen down. Vials were thawed and used within 20 passages. SW1573 cells were a gift from Arvinas and were handled in the same manner. NCI-H2030, NCI-H23, and NCI-H358 were cultured in RPMI (ATCC30-2001) supplemented with 10% FBS (Biological Industries; cat. no. S1480) and 1% Penicillin-Streptomycin (ThermoFisher; cat. no. 15140122). HCT-116 cells were maintained in high glucose DMEM (ThermoFisher; cat. no. 11965084) supplemented as above. MIA PaCa-2 cells were cultured in high glucose DMEM supplemented with 10% FBS, 2.5% horse serum (ThermoFisher; cat. no. 26050-088; lot 2109875), and 1% Penicillin-Streptomycin. SW1573 cells were maintained in DMEM/F12 Nutrient Mix with GlutaMAX supplement (ThermoFisher; cat. no. 10565018) with 10% FBS and 1% Penicillin-Streptomycin added. DPBS (ThermoFisher; cat. no. 14190250) was used to wash cells and 0.25% Trypsin-EDTA (ThermoFisher; cat. no. […]) was used to detach cells for passaging. […] The VHL ligand was generously provided by Arvinas.
Between 2.5×10^5 and 6.0×10^5 cells were seeded into 6-well plates (Corning; cat. no. 353046). The next day, media was removed and cells were treated with 2.5 μM LC-2 for 1, 2, 4, 8, 12, or 24 hours. […] For 24-hour time course experiments, cells were treated at the indicated times and concurrently lysed in RIPA buffer supplemented as described previously. For longer time course experiments and time courses in which cells were treated with LC-2 or LC-2 Epimer, cells were concurrently treated with either compound, then lysed by scraping in RIPA buffer at the indicated time points.
Cell lysates were clarified at 21000×g for 15 mins at 4° C. Protein levels were quantified using a 50:1 mixture of bicinchoninic acid solution (Millipore Sigma; cat. no. B9643) and 4% (w/v) copper(II) sulfate solution (Millipore Sigma; cat. no. C2284) incubated at 37° C. for 30 mins. Absorbance values at 560 nm were read on an EnVision 2101 Multilabel Reader (PerkinElmer). Proteins were separated using 26 well Criterion TGX precast 4-15% (cat. no. 5671085) or 8-16% (cat. no. 5671105) gradient midi gels. After separation, proteins were transferred to nitrocellulose or PVDF membranes at 76 V for 2 hours at 4° C. Blots were then blocked in 5% milk in tris-buffered saline with Tween-20 (TBST; 20 mM Tris, 150 mM NaCl, 0.02% Tween-20). After blocking, blots were incubated in primary antibody overnight (12-18 hours) at 4° C. or for 2 hours at room temperature with mild agitation at the manufacturer's indicated dilution in either 5% milk or 5% BSA in TBST. Blots were then washed thrice with TBST for 5 mins at room temperature. After washing, blots were incubated with 1:5,000-1:10,000 of donkey anti-rabbit (GE Life Sciences; NA934) or sheep anti-mouse (GE Life Sciences; NA931) secondary antibody diluted in 5% milk for 1 hour at room temperature with mild agitation. Blots were again washed thrice with TBST for 5 mins. Chemiluminescent signal was generated using Amersham ECL Prime Western Blotting Detection Reagant (GE Life Sciences; cat. no. RPN2232) or SuperSignal West Femto Maximum Sensitivity Substrate (ThermoFisher; cat. no. 34095). Images were obtained using a Bio-Rad ChemiDoc Imager. Fluorescent α-tubulin images were collected with the Bio-Rad ChemiDoc Imager using an Alexa488 filter. The primary antibodies used in this work include: KRAS (LSBio; clone 2C1; cat. no. LS-C175665), p-p42/44 MAPK (phospho T202/Y204) (pErk; Cell Signaling Technologies (CST); cat. no. 4370S or 9106S), p42/44 MAPK (Erk1/2; CST; cat. no. 4695S), alpha-tubulin (CST; 2144S), and alpha-tubulin w/AlexaFluor488 (Millipore; cat. no. 16-232).
Band intensities were quantified using BioRad's Image Lab Software. […]

[5] = SW1573 cells, 72 hour time course (FIG. 8)
[6] = SW1573 cells, time course (FIG. 6B)

`C=C(F)C(=O)N1CCN(c2nc(OC[C@@H]3CCCN3CCCOCCC(=O)N[C@H](C(=O)N3C[C@@H](O)C[C@H]3C(=O)NCc3ccc(-c4scnc4C)cc3)C(C)(C)C)nc3c2CCN(c2cccc4cccc(Cl)c24)C3)C[C@@H]1CC#N` [LC-2 Epimer, (2S,4S)-1-((S)-2-(3-(3-((S)-2-(((7-(8-chloronaphthalen-1-yl)-4-((S)-3-(cyanomethyl)-4-(2-fluoroacryloyl)piperazin-1-yl)-5,6,7,8-tetrahydropyrido[3,4-d]pyrimidin-2-yl)oxy)methyl)pyrrolidin-1-yl)propoxy)propanamido)-3,3-dimethylbutanoyl)-4-hydroxy-N-(4-(4-methylthiazol-5-yl)benzyl)pyrrolidine-2-carboxamide] was tested, and the “induction of KRAS^G12C degradation” value (KRAS^G12C [1]) was “not”, the “induction of KRAS^G12C degradation” value (KRAS^G12C [2]; 2.5 μM (FIG. 5A)) was “does not induce KRAS^G12C degradation” and the “change of KRAS^G12C level over 72 hours” value (KRAS^G12C [3]; [5]) was “No change is observed”. For the same molecule, the “time to near maximal engagement” value (KRAS^G12C [4]; SW1573, 2.5 μM) was 1 h and the “KRAS^G12C engagement and protein levels” value (KRAS^G12C [4]; SW1573, longer time course (FIG. 8)) was “fully engaged KRAS^G12C in SW1573 cells, but did not decrease protein levels”.
In the case of `C=C(F)C(=O)N1CCN(c2nc(OC[C@@H]3CCCN3CCCOCCC(=O)N[C@H](C(=O)N3C[C@H](O)C[C@H]3C(=O)NCc3ccc(-c4scnc4C)cc3)C(C)(C)C)nc3c2CCN(c2cccc4cccc(Cl)c24)C3)C[C@@H]1CC#N` [LC-2, (2S,4R)-1-((S)-2-(3-(3-((S)-2-(((7-(8-chloronaphthalen-1-yl)-4-((S)-3-(cyanomethyl)-4-(2-fluoroacryloyl)piperazin-1-yl)-5,6,7,8-tetrahydropyrido[3,4-d]pyrimidin-2-yl)oxy)methyl)pyrrolidin-1-yl)propoxy)propanamido)-3,3-dimethylbutanoyl)-4-hydroxy-N-(4-(4-methylthiazol-5-yl)benzyl)pyrrolidine-2-carboxamide], the “induction of KRAS^G12C degradation” value (KRAS^G12C [1]) is reported as “induces KRAS^G12C degradation”, the “rescue of induced KRAS^G12C degradation (mechanism)” value (KRAS^G12C [2]; VHL ligand competition, epoxomicin, MLN924 (FIG. 5A)) is reported as “rescued by VHL ligand competition, proteasome inhibition with epoxomicin (Epox), and neddylation inhibition with MLN924 (MLN)” and the “degradation of KRAS^G12C” value (KRAS^G12C [2]; dose response (FIG. 2C)) is reported as “degrades KRAS^G12C in a dose dependent manner”. For the same molecule, the “maximal KRAS^G12C degradation maintained up to” value (KRAS^G12C [2]; time course (FIG. 6A)) was 24 h, the “time to maximal KRAS^G12C degradation” value (KRAS^G12C [2]; time course (FIG. 6A)) was at most 8 h and the “KRAS^G12C degradation maintained for” value (KRAS^G12C [3]; [5]) was 72 h. For the same molecule, the “time to onset of KRAS^G12C degradation” value (KRAS^G12C [3]; [5]) was at most 6 h, the “maximal KRAS^G12C degradation maintained up to” value (KRAS^G12C [3]; [6]) was 24 h and the “time to maximal KRAS^G12C degradation” value (KRAS^G12C [3]; [6]) was 12 h. For the same molecule, the “induction of KRAS^G12C degradation” value (KRAS^G12C [3]; homozygous, MRTX849 resistant SW1573 cells (FIG. 4C)) was “induces KRAS^G12C degradation”, the “duration of KRAS degradation” value (KRAS^G12C [4]; SW1573, 2.5 μM) was “sustained up to 72 hours” and the “time to maximal KRAS degradation” value (KRAS^G12C [4]; SW1573, 2.5 μM, 6, 24, 48, 72 hours) was at most 24 h. For the same molecule, the “KRAS, two-way ANOVA significance vs DMSO” value (KRAS^G12C [4]; SW1573, 2.5 μM, 1 hour) was “N.S”, the “KRAS, two-way ANOVA significance vs DMSO” value (KRAS^G12C [4]; SW1573, 2.5 μM, 2 hours) was “N.S” and the “KRAS, two-way ANOVA significance vs DMSO” value (KRAS^G12C [4]; SW1573, 2.5 μM, 4 hours) was “N.S”. For the same molecule, the “KRAS, two-way ANOVA significance vs DMSO” value (KRAS^G12C [4]; SW1573, 2.5 μM, 8 hours) was “** (** p < 0.01)”, the “KRAS, two-way ANOVA significance vs DMSO” value (KRAS^G12C [4]; SW1573, 2.5 μM, 12 hours) was “** (** p < 0.01)” and the “time to maximal degradation” value (KRAS^G12C [4]; SW1573, 2.5 μM, 24 hour time course) was 12 h. For the same molecule, the “KRAS, two-way ANOVA significance vs DMSO” value (KRAS^G12C [4]; SW1573, 2.5 μM, 24 hours) was “*** (*** p < 0.005)”, the DC50 (KRAS^G12C [4]; SW1573, homozygous KRAS^G12C) was 760 ± 300 nM and the Dmax (KRAS^G12C [4]; SW1573, homozygous KRAS^G12C) was over 85%.
